Test results as given in patent publication US20240092758A1, “IMIDAZOLO INDAZOLE COMPOUNDS AS JAK INHIBITORS” (Theravance Biopharma R&D IP, LLC, priority 2021, published 2024).

Assays:
[1] = target: JAK1 (Homo sapiens (Human), UniProt P23458); assay: Biochemical JAK kinase assay (LanthaScreen), JAK1; details: for Ki: read-out: JAK1 pKi (converted)
Method: (§1) A panel of four LanthaScreen JAK biochemical assays (JAK1, 2, 3 and Tyk2) were carried in a common kinase reaction buffer (50 mM HEPES, pH 7.5, 0.01% Brij-35, 10 mM MgCl2, and 1 mM EGTA). Recombinant GST-tagged JAK enzymes and a GFP-tagged STAT1 peptide substrate were obtained from Life Technologies.
(§2) Serially diluted compounds were pre-incubated with each of the four JAK enzymes and the substrate in white 384-well microplates (Corning) at ambient temperature for 1 h. ATP was subsequently added to initiate the kinase reactions in 10 μL total volume, with 1% DMSO. The final enzyme concentrations for JAK1, 2, 3 and Tyk2 are 4.2 nM, 0.1 nM, 1 nM, and 0.25 nM respectively; the corresponding Km ATP concentrations used are 25 μM, 3 μM, 1.6 μM, and 10 μM; while the substrate concentration is 200 nM for all four assays. Kinase reactions were allowed to proceed for 1 hour at ambient temperature before a 10 μL preparation of EDTA (10 mM final concentration) and Tb-anti-pSTAT1 (pTyr701) antibody (Life Technologies, 2 nM final concentration) in TR-FRET dilution buffer (Life Technologies) was added. The plates were allowed to incubate at ambient temperature for 1 h before being read on the EnVision reader (Perkin Elmer). Emission ratio signals (520 nm/495 nm) were recorded and utilized to calculate the percent inhibition values based on DMSO and background controls.
(§3) For dose-response analysis, percent inhibition data were plotted vs. compound concentrations, and IC50 values were determined from a 4-parameter robust fit model with the Prism software (GraphPad Software). Results were expressed as pIC50 (negative logarithm of IC50) and subsequently converted to pKi (negative logarithm of dissociation constant, Ki) using the Cheng-Prusoff equation.
(§4) Test compounds having a lower Ki value or higher pKi value in the four JAK assays show greater inhibition of JAK activity.

[2] = target: JAK2 (Homo sapiens (Human), UniProt O60674); assay: Biochemical JAK kinase assay (LanthaScreen), JAK2; details: for Ki: read-out: JAK2 pKi (converted)
Sequence of JAK2 (O60674 whole entry): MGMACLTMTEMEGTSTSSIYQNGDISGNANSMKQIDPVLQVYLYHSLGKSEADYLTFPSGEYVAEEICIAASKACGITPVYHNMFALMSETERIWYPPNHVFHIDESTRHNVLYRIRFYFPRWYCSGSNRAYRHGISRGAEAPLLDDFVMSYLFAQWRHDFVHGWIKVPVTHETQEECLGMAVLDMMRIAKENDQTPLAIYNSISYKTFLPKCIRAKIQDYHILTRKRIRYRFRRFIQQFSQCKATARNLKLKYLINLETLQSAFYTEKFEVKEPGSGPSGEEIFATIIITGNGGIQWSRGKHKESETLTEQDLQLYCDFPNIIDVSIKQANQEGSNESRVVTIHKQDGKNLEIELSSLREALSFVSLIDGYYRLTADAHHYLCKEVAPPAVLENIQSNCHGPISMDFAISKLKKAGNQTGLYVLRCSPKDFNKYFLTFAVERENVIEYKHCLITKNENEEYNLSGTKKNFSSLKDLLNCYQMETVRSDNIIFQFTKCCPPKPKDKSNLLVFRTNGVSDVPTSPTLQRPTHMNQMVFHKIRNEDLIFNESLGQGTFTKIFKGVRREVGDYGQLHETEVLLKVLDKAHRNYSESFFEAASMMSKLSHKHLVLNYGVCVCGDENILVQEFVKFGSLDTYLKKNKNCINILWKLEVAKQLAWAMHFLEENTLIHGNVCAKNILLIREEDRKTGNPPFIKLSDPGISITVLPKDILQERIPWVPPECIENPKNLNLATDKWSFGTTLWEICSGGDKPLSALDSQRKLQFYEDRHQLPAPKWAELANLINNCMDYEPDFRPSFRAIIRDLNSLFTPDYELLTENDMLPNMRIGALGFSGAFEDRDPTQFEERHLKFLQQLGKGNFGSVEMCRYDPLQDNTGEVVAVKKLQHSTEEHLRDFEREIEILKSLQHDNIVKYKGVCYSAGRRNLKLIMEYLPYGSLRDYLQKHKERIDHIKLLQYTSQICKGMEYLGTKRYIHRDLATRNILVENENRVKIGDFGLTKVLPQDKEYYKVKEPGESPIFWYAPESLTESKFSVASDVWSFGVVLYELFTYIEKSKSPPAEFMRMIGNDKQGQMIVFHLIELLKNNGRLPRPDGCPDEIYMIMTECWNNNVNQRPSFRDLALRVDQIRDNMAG
Method: as §1, §2, §3, §4

[3] = system: IL-13 induced STAT6 phosphorylation in BEAS-2B human lung epithelial cells; assay: Cellular JAKI potency assay (BEAS-2B); format: cell-based; details: BEAS-2B cells; for IC50: Homo sapiens, BEAS-2B, read-out: BEAS2B pIC50 (converted)
Method: The JAKI cellular potency assay was carried out by measuring inhibition of interleukin-13 (IL-13, R&D Systems) induced STAT6 phosphorylation in BEAS-2B human lung epithelial cells (ATCC). BEAS-2B cells were grown at 37° C. in a 5% CO2 humidified incubator in 50% DMEM/50% F-12 medium (Life Technologies) supplemented with 10% FBS (Hyclone), 100 U/mL penicillin, 100 μg/mL streptomycin (Life Technologies), and 2 mM GlutaMAX (Life Technologies). On day 1 of the assay, cells were seeded at a 7,500 cells/well density in white poly-D-lysine-coated 384-well plates (Corning) with 25 μL medium and were allowed to adhere overnight in the incubator. On day 2 of the assay, the medium was removed and replaced with 12 μL of assay buffer (Hank's Balanced Salt Solution/HBSS, 25 mM HEPES, and 1 mg/ml bovine serum albumin/BSA) containing dose-responses of test compounds. Compounds were serially diluted in DMSO and then diluted another 1000-fold in media to bring the final DMSO concentration to 0.1%. Cells were incubated with test compounds at 37° C. for 1 h and followed by the addition of 12 μl of pre-warmed IL-13 (80 ng/mL in assay buffer) for stimulation. After incubating at 37° C. for 30 min, the assay buffer (containing compound and IL-13) was removed, and 10 μL of cell lysis buffer (25 mM HEPES, 0.1% SDS, 1% NP-40, 5 mM MgCl2, 1.3 mM EDTA, 1 mM EGTA, supplemented with Complete Ultra mini protease inhibitors and PhosSTOP from Roche Diagnostics). The plates were shaken at ambient temperature for 30 min before the addition of detection reagents. Levels of pSTAT6 were measured using the AlphaLISA SureFire Ultra pSTAT6 (Tyr641) assay kit from PerkinElmer. For dose-response analysis, percent inhibition data were plotted vs. compound concentrations, and IC50 values were determined from a 4-parameter robust fit model with the Graphpad Prism software. Results are expressed as the negative logarithm of the IC50 value, pIC50.
Test compounds having a lower IC50 value or higher pIC50 value in this assay show greater inhibition of IL-13 induced STAT6 phosphorylation.

Sequence of JAK1 (P23458 whole entry): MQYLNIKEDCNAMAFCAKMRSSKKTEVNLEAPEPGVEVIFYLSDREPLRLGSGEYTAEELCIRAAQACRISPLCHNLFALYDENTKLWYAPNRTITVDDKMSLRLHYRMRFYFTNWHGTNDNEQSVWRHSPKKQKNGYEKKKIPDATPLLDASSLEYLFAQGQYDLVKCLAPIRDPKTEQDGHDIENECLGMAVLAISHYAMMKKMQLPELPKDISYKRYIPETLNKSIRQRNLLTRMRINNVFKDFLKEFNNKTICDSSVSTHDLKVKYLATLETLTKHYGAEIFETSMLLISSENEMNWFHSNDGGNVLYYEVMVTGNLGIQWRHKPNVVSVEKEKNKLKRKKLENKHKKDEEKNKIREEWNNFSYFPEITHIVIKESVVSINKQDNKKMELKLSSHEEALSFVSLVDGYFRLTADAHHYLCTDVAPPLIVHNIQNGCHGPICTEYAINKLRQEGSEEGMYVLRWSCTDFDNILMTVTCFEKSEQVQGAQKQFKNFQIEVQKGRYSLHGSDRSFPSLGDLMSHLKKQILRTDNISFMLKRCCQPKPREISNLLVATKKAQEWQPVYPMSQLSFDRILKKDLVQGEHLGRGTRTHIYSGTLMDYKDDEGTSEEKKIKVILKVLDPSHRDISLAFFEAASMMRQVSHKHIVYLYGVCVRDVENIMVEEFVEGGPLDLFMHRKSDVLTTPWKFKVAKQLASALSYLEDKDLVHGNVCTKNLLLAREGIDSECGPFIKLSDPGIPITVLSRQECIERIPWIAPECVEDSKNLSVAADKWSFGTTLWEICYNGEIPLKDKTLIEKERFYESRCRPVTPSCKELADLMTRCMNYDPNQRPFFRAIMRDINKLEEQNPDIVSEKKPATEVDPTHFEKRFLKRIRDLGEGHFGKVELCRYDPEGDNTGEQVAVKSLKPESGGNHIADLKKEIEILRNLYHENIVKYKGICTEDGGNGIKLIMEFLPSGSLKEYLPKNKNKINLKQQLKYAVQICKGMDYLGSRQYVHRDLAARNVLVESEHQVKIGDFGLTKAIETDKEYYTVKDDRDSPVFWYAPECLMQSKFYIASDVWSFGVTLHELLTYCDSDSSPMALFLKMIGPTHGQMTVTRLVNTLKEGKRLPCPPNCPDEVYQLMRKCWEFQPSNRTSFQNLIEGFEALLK

Structure (SMILES)	Ki [1] [nM]	JAK2 pKi [2]	IC50 [3] [nM]	JAK1 pKi [1]	Ki [2] [nM]	BEAS2B pIC50 [3]
CCc1cc(O)ccc1-c1ccc2c(-c3nc(C4=CCN(C5COC5)C4)c[nH]3)n[nH]c2c1 [Example 73]	0.1 to 1	A (A represents a pKi value ≥10 (Ki≤0.1 nM))	10 to 31.6	–	–	–
CCc1cc(O)ccc1-c1ccc2c(-c3nc(C4=C[C@H](CC(=O)OC)NC4)c[nH]3)n[nH]c2c1F [Example 253]	–	A (A represents a pKi value ≥10 (Ki≤0.1 nM))	3.16 to 10	A (A represents a pKi value ≥10 (Ki≤0.1 nM))	–	–
CCCN1CC=C(c2c[nH]c(-c3n[nH]c4c(F)c(-c5ccc(O)cc5CC)ccc34)n2)C1 [Example 288]	–	A (A represents a pKi value ≥10 (Ki≤0.1 nM))	3.16 to 10	A (A represents a pKi value ≥10 (Ki≤0.1 nM))	–	–
CCc1cc(O)ccc1-c1ccc2c(-c3nc(C4=CC[C@H](C)N(CCO)C4)c[nH]3)n[nH]c2c1F [Example 257]	0.1 to 1	–	10 to 31.6	–	0.1 to 1	–
CCc1cc(O)ccc1-c1ccc2c(-c3nc(C4=CCN([C@H]5CC[C@](O)(C(F)(F)F)CC5)C4)c[nH]3)n[nH]c2c1F [Example 391]	0.1 to 1	–	100 to 316	–	0.1 to 1	–
CCc1cc(O)ccc1-c1ccc2c(-c3nc(C4=CCN(C(C)C5CC(O)C5)CC4)c[nH]3)n[nH]c2c1F (stereo not drawn) [Example 58]	–	A (A represents a pKi value ≥10 (Ki≤0.1 nM))	3.16 to 10	A (A represents a pKi value ≥10 (Ki≤0.1 nM))	–	–
CCc1cc(O)ccc1-c1ccc2c(-c3nc(C4=C[C@H](CO)N(C5COC5)C4)c[nH]3)n[nH]c2c1F [Example 273]	0.1 to 1	A (A represents a pKi value ≥10 (Ki≤0.1 nM))	10 to 31.6	–	–	–
CCc1cc(O)ccc1-c1ccc2c(-c3nc(C4=CCN(CCC(C)(C)O)CC4)c[nH]3)n[nH]c2c1F [Example 37]	0.1 to 1	–	10 to 31.6	–	0.1 to 1	–
CCc1cc(O)ccc1-c1ccc2c(-c3nc(C4=CCN(C(=O)c5ccccc5)CC4)c[nH]3)n[nH]c2c1 [Example 151]	1 to 10	–	31.6 to 100	–	1 to 10	–
CCc1cc(O)ccc1-c1ccc2c(-c3nc(C4=CCNC(C(C)(C)C)C4)c[nH]3)n[nH]c2c1 (stereo not drawn) [Example 356]	0.1 to 1	–	31.6 to 100	–	0.1 to 1	–
CCc1cc(O)ccc1-c1ccc2c(-c3nc(C4=CCN(CCNC(=O)C5CCC5)CC4)c[nH]3)n[nH]c2c1F [Example 317]	0.1 to 1	–	10 to 31.6	–	0.1 to 1	–
CCc1cc(O)ccc1-c1ccc2c(-c3nc(C4=CCN(CC5CC5)C4)c[nH]3)n[nH]c2c1F [Example 290]	–	A (A represents a pKi value ≥10 (Ki≤0.1 nM))	3.16 to 10	A (A represents a pKi value ≥10 (Ki≤0.1 nM))	–	–
CCc1cc(O)ccc1-c1ccc2c(-c3nc(C4=CC(C)(C)NC4)c[nH]3)n[nH]c2c1F [Example 336]	0.1 to 1	–	10 to 31.6	–	0.1 to 1	–
CCc1cc(O)ccc1-c1ccc2c(-c3nc(C4=CCN(CC(=O)NC)CC4)c[nH]3)n[nH]c2c1F [Compound 12, 2-(4-(2-(6-(2-ethyl-4-hydroxyphenyl)-7-fluoro-1H-indazol-3-yl)-1H-imidazol-4-yl)-3,6-dihydropyridin-1(2H)-yl)-N-methylacetamide]	0.1 to 1	–	10 to 31.6	–	0.1 to 1	–
CCc1cc(O)ccc1-c1ccc2c(-c3nc(C4=CCCN(CC5COC5)C4)c[nH]3)n[nH]c2c1F [Example 68]	0.1 to 1	–	10 to 31.6	–	0.1 to 1	–
CCc1cc(O)ccc1-c1ccc2c(-c3nc(C4=C[C@@H](CC(=O)OC)NC4)c[nH]3)n[nH]c2c1F [Example 254]	0.1 to 1	–	10 to 31.6	–	0.1 to 1	–

Structure (SMILES)	Ki [1] [nM]	JAK2 pKi [2]	IC50 [3] [nM]	JAK1 pKi [1]	Ki [2] [nM]	BEAS2B pIC50 [3]
CCc1cc(O)ccc1-c1ccc2c(-c3nc(C4=CC5CNCCN5CC4)c[nH]3)n[nH]c2c1F (stereo not drawn) [Example 358]	0.1 to 1	–	31.6 to 100	–	0.1 to 1	–
CCc1cc(O)ccc1-c1ccc2c(-c3nc(C4=C[C@H](CCO)NC4)c[nH]3)n[nH]c2c1F [Example 314]	0.1 to 1	–	10 to 31.6	–	0.1 to 1	–
CCc1cc(O)ccc1-c1ccc2c(-c3nc(C4=CCN(C5CC(O)C5)C4)c[nH]3)n[nH]c2c1 (stereo not drawn) [Example 52]	–	A (A represents a pKi value ≥10 (Ki≤0.1 nM))	3.16 to 10	A (A represents a pKi value ≥10 (Ki≤0.1 nM))	–	–
CCc1cc(O)ccc1-c1ccc2c(-c3nc(C4=CCCN(C(=O)c5ccccc5)C4)c[nH]3)n[nH]c2c1 [Example 163]	1 to 10	–	31.6 to 100	–	1 to 10	–
CCc1cc(O)ccc1-c1ccc2c(-c3nc(C4=CCN(C[C@@H]5COCCN5)C4)c[nH]3)n[nH]c2c1 [Example 200]	0.1 to 1	A (A represents a pKi value ≥10 (Ki≤0.1 nM))	10 to 31.6	–	–	–
Oc1ccc(-c2ccc3c(-c4nc(C5=CCNC5)c[nH]4)n[nH]c3c2)c(CC(F)(F)F)c1 [Example 378]	0.1 to 1	–	31.6 to 100	–	0.1 to 1	–
CCc1cc(O)ccc1-c1ccc2c(-c3nc(C4=CCN(Cc5cn[nH]c5)C4)c[nH]3)n[nH]c2c1F [Example 145]	–	A (A represents a pKi value ≥10 (Ki≤0.1 nM))	10 to 31.6	A (A represents a pKi value ≥10 (Ki≤0.1 nM))	–	–
CCc1cc(O)ccc1-c1ccc2c(-c3nc(C4=CCN(CCN5CCNC5=O)CC4)c[nH]3)n[nH]c2c1F [Example 120]	0.1 to 1	–	10 to 31.6	–	0.1 to 1	–
CCc1cc(O)ccc1-c1ccc2c(-c3nc(C4=CCN(CCNC(C)=O)C4)c[nH]3)n[nH]c2c1 [Example 114]	–	A (A represents a pKi value ≥10 (Ki≤0.1 nM))	3.16 to 10	A (A represents a pKi value ≥10 (Ki≤0.1 nM))	–	–
CCc1cc(O)ccc1-c1ccc2c(-c3nc(C4=CCNC(C)(C)C4)c[nH]3)n[nH]c2c1 [Example 376]	0.1 to 1	–	31.6 to 100	–	0.1 to 1	–
CCc1cc(O)c(F)cc1-c1ccc2c(-c3nc(C4=CCNCC4)c[nH]3)n[nH]c2c1 [Example 284]	–	A (A represents a pKi value ≥10 (Ki≤0.1 nM))	3.16 to 10	A (A represents a pKi value ≥10 (Ki≤0.1 nM))	–	–
CCc1cc(O)ccc1-c1ccc2c(-c3nc(C4=CCCN(CCS(=O)(=O)NC)C4)c[nH]3)n[nH]c2c1 [Example 89]	0.1 to 1	A (A represents a pKi value ≥10 (Ki≤0.1 nM))	10 to 31.6	–	–	–
CCc1cc(O)ccc1-c1ccc2c(-c3nc(C4=CCN[C@H](CO)C4)c[nH]3)n[nH]c2c1F [Example 386]	0.1 to 1	–	–	–	0.1 to 1	C (C represents a pIC50 value between 7 (included) and 7.5)
CCc1cc(O)ccc1-c1ccc2c(-c3nc(C4=C[C@@H](CO)NC4)c[nH]3)n[nH]c2c1 [Example 240]	0.1 to 1	–	31.6 to 100	–	0.1 to 1	–
CCc1cc(O)ccc1-c1ccc2c(-c3nc(C4=CCCN(CCc5ccccc5)C4)c[nH]3)n[nH]c2c1 [Example 139]	1 to 10	–	100 to 316	–	0.1 to 1	–
CCc1cc(O)ccc1-c1ccc2c(-c3nc(C4=CCCN(CCNC(=O)C(C)C)C4)c[nH]3)n[nH]c2c1 [Example 110]	0.1 to 1	–	10 to 31.6	–	0.1 to 1	–
